# The source made the active and inactive calls. No rule for the calls is given here.
# Test system: CCRIS mutagenicity, Ames/micronucleus/aberration tests
# Assay: CCRIS mutagenicity studies
# [1] = Test System: AMES SALMONELLA TYPHIMURIUM, Strain/Indicator: TA98, Metabolic Activation: NONE, Method: STANDARD PLATE
# [2] = Test System: AMES SALMONELLA TYPHIMURIUM, Strain/Indicator: TA98, Metabolic Activation: RAT, LIVER, S-9, AROCLOR 1254, Method: PREINCUBATION
# [3] = Test System: AMES SALMONELLA TYPHIMURIUM, Strain/Indicator: TA98, Metabolic Activation: RAT, LIVER, S-9, AROCLOR 1254, Method: STANDARD PLATE
# [4] = Test System: AMES SALMONELLA TYPHIMURIUM, Strain/Indicator: TA100, Metabolic Activation: NONE, Method: STANDARD PLATE
# [5] = Test System: AMES SALMONELLA TYPHIMURIUM, Strain/Indicator: TA100, Metabolic Activation: RAT, LIVER, S-9, AROCLOR 1254, Method: PREINCUBATION
# [6] = Test System: AMES SALMONELLA TYPHIMURIUM, Strain/Indicator: TA100, Metabolic Activation: RAT, LIVER, S-9, AROCLOR 1254, Method: STANDARD PLATE
# [7] = Test System: AMES SALMONELLA TYPHIMURIUM, Strain/Indicator: TA100, Metabolic Activation: NONE, Method: PREINCUBATION
# [8] = Test System: AMES SALMONELLA TYPHIMURIUM, Strain/Indicator: TA1535, Metabolic Activation: NONE, Method: STANDARD PLATE
# [9] = Test System: AMES SALMONELLA TYPHIMURIUM, Strain/Indicator: TA1535, Metabolic Activation: RAT, LIVER, S-9, AROCLOR 1254, Method: STANDARD PLATE
SMILES,mutagenic call [1],mutagenic call [2],mutagenic call [3],mutagenic call [4],mutagenic call [5],mutagenic call [6],mutagenic call [7],mutagenic call [8],mutagenic call [9],also measured
COP(=O)(OC)SC,inactive; negative,inactive; negative,inactive; negative,inactive; negative,inactive; negative,inactive; negative,,,,"mutagenic call (Test System: AMES SALMONELLA TYPHIMURIUM, Strain/Indicator: TA97, Metabolic Activation: NONE, Method: STANDARD PLATE): inactive; negative; mutagenic call (Test System: AMES SALMONELLA TYPHIMURIUM, Strain/Indicator: TA97, Metabolic Activation: RAT, LIVER, S-9, AROCLOR 1254, Method: PREINCUBATION): inactive; negative; mutagenic call (Test System: AMES SALMONELLA TYPHIMURIUM, Strain/Indicator: TA97, Metabolic Activation: RAT, LIVER, S-9, AROCLOR 1254, Method: STANDARD PLATE): inactive; negative"
O=[N+]([O-])c1ccc2cc3c(cc2c1)[C@H](O)[C@@H](O)C=C3,active; positive,,active; positive,,,,,,,
C=C(Cl)C#N,,,,,inactive; negative,,inactive; negative,,,
CC(=O)O[C@]1(C(C)=O)CC[C@H]2[C@@H]3C4OC4(Cl)C4=CC(=O)[C@@H]5C[C@@H]5[C@]4(C)[C@H]3CC[C@@]21C (stereo partly specified),inactive; negative,inactive; negative,inactive; negative,inactive; negative,inactive; negative,inactive; negative,inactive; negative,inactive; negative,inactive; negative,"mutagenic call (Test System: AMES SALMONELLA TYPHIMURIUM, Strain/Indicator: TA98, Metabolic Activation: NONE, Method: PREINCUBATION): inactive; negative; mutagenic call (Test System: AMES SALMONELLA TYPHIMURIUM, Strain/Indicator: TA1535, Metabolic Activation: NONE, Method: PREINCUBATION): inactive; negative; mutagenic call (Test System: AMES SALMONELLA TYPHIMURIUM, Strain/Indicator: TA1535, Metabolic Activation: RAT, LIVER, S-9, AROCLOR 1254, Method: PREINCUBATION): inactive; negative; mutagenic call (Test System: AMES SALMONELLA TYPHIMURIUM, Strain/Indicator: TA1537, Metabolic Activation: NONE, Method: PREINCUBATION): inactive; negative; mutagenic call (Test System: AMES SALMONELLA TYPHIMURIUM, Strain/Indicator: TA1537, Metabolic Activation: NONE, Method: STANDARD PLATE): inactive; negative; mutagenic call (Test System: AMES SALMONELLA TYPHIMURIUM, Strain/Indicator: TA1537, Metabolic Activation: RAT, LIVER, S-9, AROCLOR 1254, Method: PREINCUBATION): inactive; negative; mutagenic call (Test System: AMES SALMONELLA TYPHIMURIUM, Strain/Indicator: TA1537, Metabolic Activation: RAT, LIVER, S-9, AROCLOR 1254, Method: STANDARD PLATE): inactive; negative; mutagenic call (Test System: AMES SALMONELLA TYPHIMURIUM, Strain/Indicator: TA1538, Metabolic Activation: NONE, Method: PREINCUBATION): inactive; negative; mutagenic call (Test System: AMES SALMONELLA TYPHIMURIUM, Strain/Indicator: TA1538, Metabolic Activation: NONE, Method: STANDARD PLATE): inactive; negative; mutagenic call (Test System: AMES SALMONELLA TYPHIMURIUM, Strain/Indicator: TA1538, Metabolic Activation: RAT, LIVER, S-9, AROCLOR 1254, Method: PREINCUBATION): inactive; negative; mutagenic call (Test System: AMES SALMONELLA TYPHIMURIUM, Strain/Indicator: TA1538, Metabolic Activation: RAT, LIVER, S-9, AROCLOR 1254, Method: STANDARD PLATE): inactive; negative"
C1CCCC2OC2CC1 (stereo unspecified),,,,inactive; negative,,inactive; negative,,inactive; negative,inactive; negative,"mutagenic call (Test System: UDS RAT HEPATOCYTES, Strain/Indicator: THY INCORP, Metabolic Activation: NONE): inactive; negative"
NCCCCCCCCCCC(=O)O,,,,,,,,,,"mutagenic call (End Point: IN VITRO CHROMOSOMAL ABERRATIONS, Test System: CHINESE HAMSTER OVARY CELLS, Metabolic Activation: NONE): inactive; negative; precipitation occurred at 1000 ug/ml; mutagenic call (End Point: IN VITRO CHROMOSOMAL ABERRATIONS, Test System: CHINESE HAMSTER OVARY CELLS, Metabolic Activation: RAT, LIVER, S-9, AROCLOR 1254): inactive; negative; precipitation occurred at 1000 ug/ml; mutagenic call (Test System: UDS RAT HEPATOCYTES, Strain/Indicator: BROMODEOXYURIDINE INCORP, Metabolic Activation: NONE, Method: FLOW CYTOMETRIC ANALYSIS): inactive; negative"
